# From PubChem BioAssay (NCI)
#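 The concentration for 50% growth inhibition is given as GI50. TGI: concentration producing complete growth inhibition.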
# How the values were obtained:
# Assay in all cases: inhibition of tumour cell growth, NCI panel, 384-well format
# TK-10 renal = test system: TK-10 renal
# OVCAR-3 ovarian = test system: OVCAR-3 ovarian
# COLO 205 colon = test system: COLO 205 colon
# DU-145 prostate = test system: DU-145 prostate
# OVCAR-4 ovarian = test system: OVCAR-4 ovarian
# HOP-92 NSCLC = test system: HOP-92 NSCLC
# IGROV1 ovarian = test system: IGROV1 ovarian
# SNB-19 CNS = test system: SNB-19 CNS
# U251 glioblastoma = test system: U251 glioblastoma
# A549 NSCLC = test system: A549 NSCLC
# HCT-15 colon = test system: HCT-15 colon
# RXF 393 renal = test system: RXF 393 renal
# SK-MEL-2 melanoma = test system: SK-MEL-2 melanoma
# SF-268 CNS = test system: SF-268 CNS
# MDA-MB-468 breast = test system: MDA-MB-468 breast
# NCI-H460 NSCLC = test system: NCI-H460 NSCLC
# HOP-62 NSCLC = test system: HOP-62 NSCLC
# T-47D breast = test system: T-47D breast
# MOLT-4 leukemia = test system: MOLT-4 leukemia
# LOX IMVI melanoma = test system: LOX IMVI melanoma
# EKVX NSCLC = test system: EKVX NSCLC
# MALME-3M melanoma = test system: MALME-3M melanoma
# HT29 colon = test system: HT29 colon
# PC-3 prostate = test system: PC-3 prostate
# CAKI-1 renal = test system: CAKI-1 renal
# NCI-H226 lung = test system: NCI-H226 lung
# BT-549 breast = test system: BT-549 breast
# HL-60(TB) leukemia = test system: HL-60(TB) leukemia
# A498 renal = test system: A498 renal
# SF-295 CNS = test system: SF-295 CNS
# HCT-116 colon = test system: HCT-116 colon
# OVCAR-8 ovarian = test system: OVCAR-8 ovarian
# K-562 leukemia = test system: K-562 leukemia
# SK-MEL-28 melanoma = test system: SK-MEL-28 melanoma
# SNB-75 CNS = test system: SNB-75 CNS
# MDA-MB-231 breast = test system: MDA-MB-231 breast
# NCI-H322M lung = test system: NCI-H322M lung
# OVCAR-5 ovarian = test system: OVCAR-5 ovarian
# SK-OV-3 ovarian = test system: SK-OV-3 ovarian
# CCRF-CEM leukemia = test system: CCRF-CEM leukemia
# RPMI-8226 leukemia = test system: RPMI-8226 leukemia
# NCI-H522 lung = test system: NCI-H522 lung
# KM12 colon = test system: KM12 colon
# HS 578T breast = test system: HS 578T breast
# SF-539 CNS = test system: SF-539 CNS
# NCI-H23 lung = test system: NCI-H23 lung
# M14 melanoma = test system: M14 melanoma
# MCF7 breast = test system: MCF7 breast
# 786-0 renal = test system: 786-0 renal
# UO-31 renal = test system: UO-31 renal
# HCC-2998 colon = test system: HCC-2998 colon
# MDA-MB-435 melanoma = test system: MDA-MB-435 melanoma
# SW-620 colon = test system: SW-620 colon
# NCI/ADR-RES ovarian = test system: NCI/ADR-RES ovarian
# SK-MEL-5 melanoma = test system: SK-MEL-5 melanoma
structure (smiles),measurement,setting,value
COC[C@H]1Cn2cc(-c3nc(Nc4ccnn4C)ncc3C)nc2C(=O)N1Cc1ccc(F)c(F)c1,GI50,TK-10 renal,0.79 µM
same,TGI,TK-10 renal,76.7 µM
same,GI50,OVCAR-3 ovarian,43.5 µM
same,TGI,OVCAR-3 ovarian,> 100 µM
same,GI50,COLO 205 colon,< 0.01 µM
same,TGI,COLO 205 colon,0.36 µM
same,GI50,DU-145 prostate,10.4 µM
same,TGI,DU-145 prostate,> 100 µM
same,GI50,OVCAR-4 ovarian,61.9 µM
same,TGI,OVCAR-4 ovarian,> 100 µM
same,GI50,HOP-92 NSCLC,0.389 µM
same,TGI,HOP-92 NSCLC,11.6 µM
same,GI50,IGROV1 ovarian,0.314 µM
same,TGI,IGROV1 ovarian,> 100 µM
same,GI50,SNB-19 CNS,53.2 µM
same,TGI,SNB-19 CNS,> 100 µM
same,GI50,U251 glioblastoma,2.25 µM
same,TGI,U251 glioblastoma,> 100 µM
same,GI50,A549 NSCLC,0.373 µM
same,TGI,A549 NSCLC,> 100 µM
same,GI50,HCT-15 colon,24.8 µM
same,TGI,HCT-15 colon,> 100 µM
same,GI50,RXF 393 renal,23.6 µM
same,TGI,RXF 393 renal,> 100 µM
same,GI50,SK-MEL-2 melanoma,0.0366 µM
same,TGI,SK-MEL-2 melanoma,0.196 µM
same,GI50,SF-268 CNS,95.9 µM
same,TGI,SF-268 CNS,> 100 µM
same,GI50,MDA-MB-468 breast,14.2 µM
same,TGI,MDA-MB-468 breast,52.2 µM
same,GI50,NCI-H460 NSCLC,2.03 µM
same,TGI,NCI-H460 NSCLC,> 100 µM
same,GI50,HOP-62 NSCLC,2.02 µM
same,TGI,HOP-62 NSCLC,> 100 µM
same,GI50,T-47D breast,53.4 µM
same,TGI,T-47D breast,> 100 µM
same,GI50,MOLT-4 leukemia,16.9 µM
same,TGI,MOLT-4 leukemia,46.5 µM
same,GI50,LOX IMVI melanoma,0.0393 µM
same,TGI,LOX IMVI melanoma,0.31 µM
same,GI50,EKVX NSCLC,11 µM
same,TGI,EKVX NSCLC,> 100 µM
same,GI50,MALME-3M melanoma,< 0.01 µM
same,TGI,MALME-3M melanoma,0.0237 µM
same,GI50,HT29 colon,0.0947 µM
same,TGI,HT29 colon,> 100 µM
same,GI50,PC-3 prostate,38.4 µM
same,TGI,PC-3 prostate,> 100 µM
same,GI50,CAKI-1 renal,0.509 µM
same,TGI,CAKI-1 renal,> 100 µM
same,GI50,NCI-H226 lung,0.612 µM
same,TGI,NCI-H226 lung,> 100 µM
same,GI50,BT-549 breast,18.6 µM
same,TGI,BT-549 breast,> 100 µM
same,GI50,HL-60(TB) leukemia,0.0154 µM
same,TGI,HL-60(TB) leukemia,1.55 µM
same,GI50,A498 renal,1.3 µM
same,TGI,A498 renal,> 100 µM
same,GI50,SF-295 CNS,> 100 µM
same,TGI,SF-295 CNS,> 100 µM
same,GI50,HCT-116 colon,0.0577 µM
same,TGI,HCT-116 colon,32.3 µM
same,GI50,OVCAR-8 ovarian,71.6 µM
same,TGI,OVCAR-8 ovarian,> 100 µM
same,GI50,K-562 leukemia,1.03 µM
same,TGI,K-562 leukemia,> 100 µM
same,GI50,SK-MEL-28 melanoma,< 0.01 µM
same,TGI,SK-MEL-28 melanoma,0.108 µM
same,GI50,SNB-75 CNS,24.3 µM
same,TGI,SNB-75 CNS,> 100 µM
same,GI50,MDA-MB-231 breast,0.266 µM
same,TGI,MDA-MB-231 breast,> 100 µM
same,GI50,NCI-H322M lung,0.145 µM
same,TGI,NCI-H322M lung,> 100 µM
same,GI50,OVCAR-5 ovarian,0.217 µM
same,TGI,OVCAR-5 ovarian,> 100 µM
same,GI50,SK-OV-3 ovarian,18.2 µM
same,TGI,SK-OV-3 ovarian,> 100 µM
same,GI50,CCRF-CEM leukemia,17.6 µM
same,TGI,CCRF-CEM leukemia,37.9 µM
same,GI50,RPMI-8226 leukemia,0.771 µM
same,TGI,RPMI-8226 leukemia,2.6 µM
same,GI50,NCI-H522 lung,1.09 µM
same,TGI,NCI-H522 lung,> 100 µM
same,GI50,KM12 colon,0.255 µM
same,TGI,KM12 colon,> 100 µM
same,GI50,HS 578T breast,15.8 µM
same,TGI,HS 578T breast,> 100 µM
same,GI50,SF-539 CNS,18.4 µM
same,TGI,SF-539 CNS,> 100 µM
same,GI50,NCI-H23 lung,0.0369 µM
same,TGI,NCI-H23 lung,2.11 µM
same,GI50,M14 melanoma,0.0106 µM
same,TGI,M14 melanoma,0.181 µM
same,GI50,MCF7 breast,19.6 µM
same,TGI,MCF7 breast,> 100 µM
same,GI50,786-0 renal,24.6 µM
same,TGI,786-0 renal,> 100 µM
same,GI50,UO-31 renal,2.73 µM
same,TGI,UO-31 renal,> 100 µM
same,GI50,HCC-2998 colon,0.0316 µM
same,TGI,HCC-2998 colon,0.219 µM
same,GI50,MDA-MB-435 melanoma,0.0355 µM
same,TGI,MDA-MB-435 melanoma,> 100 µM
same,GI50,SW-620 colon,0.0875 µM
same,TGI,SW-620 colon,58.6 µM
same,GI50,NCI/ADR-RES ovarian,93.6 µM
same,TGI,NCI/ADR-RES ovarian,> 100 µM
same,GI50,SK-MEL-5 melanoma,0.064 µM
same,TGI,SK-MEL-5 melanoma,35.7 µM
